Each structure is given as a SMILES string.

Series [1] can be described thus: XBC vs Dipropylene Glycol Methyl Ether (DPM) in acrylic modified epoxy ester based paint: physical and coating properties. Conditions: for Specific Gravity: acrylic modified epoxy ester (Epotuf 38-698) based paint; for VOC (Without Water) / Viscosity / Volume Solid % / Weight Solid %: acrylic modified epoxy ester based paint. How it is done:
The properties of XBC4, in comparison to dipropylene glycol methyl ether (DPM), in an acrylic-modified epoxy ester-based paint were determined to be as follows: […]

The nature of series [2]: VOC (calculated) of water-based paint formulas. The format is physicochemical. Conditions: water-based paints, substituted for propylene glycol. On the procedure: Bis(2-ButoxyEthyl Carbonate) was tested in a number of water-based flat paints, as follows. Water was added to a container and the additives were added. The container was placed under a high speed disperser and mixed under slow speed. Natrosol™ hydroxyethylcellulose was added slowly and allowed to mix for 10 minutes increasing speed as needed. The pigments were then added, slowly increasing speed and water as needed. After the pigments were added, the speed was increased to about 2800 rpms. After 10 to 15 minutes the speed was reduced to about 1000 rpms. The latex was added slowly into the vortex. The rest of the water and other additives (depending on the formulation) were then added and allowed to mix for 5 minutes.
In some tests, bis(2-ButoxyEthyl Carbonate) was substituted for propylene glycol to evaluate its effectiveness in replacing propylene glycol to create a lower VOC and lower toxicity material.

A short description of series [3]: Physical/chemical properties of XBC4 (GlykoSol).

In the case of `COC(C)COC(C)CO` (stereo not drawn) [DPM, dipropylene glycol methyl ether, reference compound], in series [1], the “Specific Gravity” value came out at 1.23 g/cm3, the “VOC (Without Water)” value is listed as 110 g/L, the Viscosity was 90 KU and the “Volume Solid %” value was found to be 35.5%. The “Weight Solid %” value in series [1] was 46.9%.
`CCCCOCCOC(=O)OCCOCCCC` [XBC4, bis(2-ButoxyEthyl Carbonate)]: in series [1], the “Specific Gravity” value came out at 1.23 g/cm3, the “VOC (Without Water)” value turned out to be 34 g/L, the Viscosity is listed as 90 KU and the “Volume Solid %” value is 35.5%. In addition, the “Weight Solid %” value in series [1] is recorded as 46.9%. The “VOC of paint after replacement of propylene glycol” value in series [2] was “far lower or zero (0) VOC materials”. Besides, in series [3], the “Auto Ignition Temp” value is given as 305 (581° F.) ° C, the “Boiling Point” value is reported as 297 (566.6° F.) ° C, the “Butyl Cellosolve Solubility” value is “Soluble” and the Clarity result is given as “Clear”. In addition, in series [3], the “Colour (Alpha, max)” value is 10 (Clear); the Flashpoint is 146.1 (295° F.) ° C; the Odor entry is “No Odor”; the “Partial Coefficient (Range)” value is 1.9-3.0. For the same compound, in series [3], the “Volatility (%)” value is listed as 100% and the “Water Solubility” value is “Not Soluble”. Moreover, the “Specific Gravity” value in series [3] (@15.5° C.) worked out at 0.985. Besides, in series [3] (@ 20° C.), the Density is 0.980 (8.22 lbs/gal) g/mL. Besides, in series [3] (@ 25° C.), the “Solubility in H2O” value is reported as “Partially Soluble”, the “Vapour Pressure” value stood at 0.008 mm Hg and the Viscosity came out at 0.60 cP. The compound also showed a VOC in series [3] (ASTM 313-91) of 0 g/L. Moreover, in series [3] (Air = 1), the “Vapour Density (Air = 1)” value turned out to be 0.95. In series [3] (Range 115-240°), the “TGA Weight Loss” value is on record as 99.47%. Moreover, in series [3] (n-Butyl Acetate = 1), the “Evaporation Rate (n-Butyl Acetate = 1)” value was determined as 0.01.

Values taken from patent US10975016B2, “Solvent compounds for use as glycol ether replacements” (TBF ENVIRONMENTAL TECHNOLOGY INC., priority 2017, dated 2021).
